Measured values from patent US9499550B2 (BRISTOL-MYERS SQUIBB COMPANY, priority 2012, dated 2016).
Read-outs that look alike come from different tables or passages of the source.

Tests used:
[1] = system: HCV genotype 1b (Con1) replicon in HUH-7 cells; assay: HCV replicon luciferase reporter assay, genotype 1b; type: cell-based; conditions: Hepatitis C virus, Huh-7, 72 h, HCV genotype 1b replicon luciferase, 3 days incubation
Procedure, shortened: (§1)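 Replicon inhibition for both genotypes was measured as Renilla luciferase signal (EnduRen, 7.5 μM final, 2 h) after 3-day, 37° C exposure of replicon-bearing HUH-7 cells in 4% FCS DMEM, 0.5% DMSO. The 1b construct carries S1179I; the 1a H77 construct carries P1496L and S2204I. Twenty-point, 3-fold dilutions were fitted four-parametrically for EC50, and CC50 was taken from multiplexed Cell Titer-Blue.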

[2] = system: HCV genotype 1a (H77 strain) replicon in HUH-7 cells; assay: HCV replicon luciferase reporter assay, genotype 1a; type: cell-based; conditions: Hepatitis C virus, Huh-7, 72 h, HCV genotype 1a replicon luciferase, 3 days incubation
Procedure, shortened: as §1

Structure (SMILES) | EC50 ([1]; read-out: LE_1b (EC50, range)) [nM] | EC50 ([2]; read-out: LE_1a (EC50, range)) [nM] | EC50 ([1]; read-out: LE_1b (EC50)) [nM] | EC50 ([2]; read-out: LE_1a (EC50)) [nM]
CC[C@@H]1C[C@H](C)CC/C=C\[C@@H]2C[C@@]2(C(=O)NS(=O)(=O)C2(C)CC2)NC(=O)[C@@H]2C[C@@H](Oc3ncc(F)c4cc(OC)ccc34)CN2C(=O)[C@H]1NC(=O)OC(C)(C)C [Compound 4383, tert-butyl ((2R,6S,7R,9R,13aS,14aR,16aS,Z)-7-ethyl-2-((4-fluoro-6-methoxyisoquinolin-1-yl)oxy)-9-methyl-14a-(((1-methylcyclopropyl)sulfonyl)carbamoyl)-5,16-dioxo-1,2,3,5,6,7,8,9,10,11,13a,14,14a,15,16,16a-hexadecahydrocyclopropa[e]pyrrolo[1,2-a][1,4]diazacyclopentadecin-6-yl)carbamate] | 0.51 to 1 | 1.01 to 5 |  | 
COc1ccc(-c2nc(O[C@@H]3C[C@H]4C(=O)N[C@]5(C(=O)NS(=O)(=O)C6CC6)C[C@H]5/C=C\CC[C@H](C)C[C@@H](C)[C@H](NC(=O)OC(C)(C)C)C(=O)N4C3)c3ccc(OC)cc3n2)cc1 [Compound 5001, tert-butyl ((2R,6S,7R,9S,13aS,14aR,16aS,Z)-14a-((cyclopropylsulfonyl)carbamoyl)-2-((7-methoxy-2-(4-methoxyphenyl)quinazolin-4-yl)oxy)-7,9-dimethyl-5,16-dioxo-1,2,3,5,6,7,8,9,10,11,13a,14,14a,15,16,16a-hexadecahydrocyclopropa[e]pyrrolo[1,2-a][1,4]diazacyclopentadecin-6-yl)carbamate] | < 5.46 | < 5.46 |  | 
COc1ccc(-c2nc(O[C@@H]3C[C@H]4C(=O)N[C@]5(C(=O)NS(=O)(=O)C6CC6)C[C@H]5/C=C\CC[C@@H](C)C[C@@H](C)[C@H](NC(=O)OC(C)(C)C)C(=O)N4C3)c3ccc(OC)cc3n2)cc1 [Compound 5002, tert-butyl ((2R,6S,7R,9R,13aS,14aR,16aS,Z)-14a-((cyclopropylsulfonyl)carbamoyl)-2-((7-methoxy-2-(4-methoxyphenyl)quinazolin-4-yl)oxy)-7,9-dimethyl-5,16-dioxo-1,2,3,5,6,7,8,9,10,11,13a,14,14a,15,16,16a-hexadecahydrocyclopropa[e]pyrrolo[1,2-a][1,4]diazacyclopentadecin-6-yl)carbamate] | < 5.46 | < 5.46 |  | 
COc1nnc(O[C@@H]2C[C@H]3C(=O)N[C@]4(C(=O)NS(=O)(=O)C5CC5)C[C@H]4/C=C\CC[C@H](C)C[C@@H](C)[C@H](NC(=O)OC(C)(C)C)C(=O)N3C2)c2ccccc12 [Compound 5003, tert-butyl ((2R,6S,7R,9S,13aS,14aR,16aS,Z)-14a-((cyclopropylsulfonyl)carbamoyl)-2-((4-methoxyphthalazin-1-yl)oxy)-7,9-dimethyl-5,16-dioxo-1,2,3,5,6,7,8,9,10,11,13a,14,14a,15,16,16a-hexadecahydrocyclopropa[e]pyrrolo[1,2-a][1,4]diazacyclopentadecin-6-yl)carbamate] | < 5.46 | 4.82 to 103 | 1.96 | 5.46
COc1nnc(O[C@@H]2C[C@H]3C(=O)N[C@]4(C(=O)NS(=O)(=O)C5CC5)C[C@H]4/C=C\CC[C@@H](C)C[C@@H](C)[C@H](NC(=O)OC(C)(C)C)C(=O)N3C2)c2ccccc12 [Compound 5004, tert-butyl ((2R,6S,7R,9R,13aS,14aR,16aS,Z)-14a-((cyclopropylsulfonyl)carbamoyl)-2-((4-methoxyphthalazin-1-yl)oxy)-7,9-dimethyl-5,16-dioxo-1,2,3,5,6,7,8,9,10,11,13a,14,14a,15,16,16a-hexadecahydrocyclopropa[e]pyrrolo[1,2-a][1,4]diazacyclopentadecin-6-yl)carbamate] | < 5.46 | < 5.46 |  | 
